Measured values: US11707503B2, “Modulators of complement activity” (Ra Pharmaceuticals, Inc., priority 2015, dated 2023)
One block for each compound: values may come before it. Starred links: 1 amine or outer side, 2 acyl side, 3 side chain; linkers in the order of their positions; H or OH if unused. Positions of bridges follow the written chain, without caps; N, C: chain ends. Non-standard residues stand in square brackets, D forms with d. Residues, ends and D or L forms follow the SMILES beside them. Trp(7-aza) = N[C@@H](Cc1c[nH]c2ncccc12)C(=O)O; mXylylene = c1cc(C[*:1])cc(C[*:2])c1; pXylylene = c1cc(C[*:2])ccc1C[*:1]; Phg = N[C@H](C(=O)O)c1ccccc1; NMeS = CN[C@@H](CO)C(=O)O; Nva = CCC[C@H](N)C(=O)O

What was measured:
C5 [1] = biological target: T1, C5 (Homo sapiens, UniProt P01031); assay: Human hemolysis assay (RBC lysis assay using complete human sera); type: cell-based; parameters: with complete human sera (Complement Technology, Tyler Tex.) and polypeptides; tissue Complement Technology, Tyler Tex; host or cells: complete human serum; conditions: compounds tested in in vivo studies; average IC50, assay and unit inferred
T1 sequence (P01031 678-1676 limits assumed): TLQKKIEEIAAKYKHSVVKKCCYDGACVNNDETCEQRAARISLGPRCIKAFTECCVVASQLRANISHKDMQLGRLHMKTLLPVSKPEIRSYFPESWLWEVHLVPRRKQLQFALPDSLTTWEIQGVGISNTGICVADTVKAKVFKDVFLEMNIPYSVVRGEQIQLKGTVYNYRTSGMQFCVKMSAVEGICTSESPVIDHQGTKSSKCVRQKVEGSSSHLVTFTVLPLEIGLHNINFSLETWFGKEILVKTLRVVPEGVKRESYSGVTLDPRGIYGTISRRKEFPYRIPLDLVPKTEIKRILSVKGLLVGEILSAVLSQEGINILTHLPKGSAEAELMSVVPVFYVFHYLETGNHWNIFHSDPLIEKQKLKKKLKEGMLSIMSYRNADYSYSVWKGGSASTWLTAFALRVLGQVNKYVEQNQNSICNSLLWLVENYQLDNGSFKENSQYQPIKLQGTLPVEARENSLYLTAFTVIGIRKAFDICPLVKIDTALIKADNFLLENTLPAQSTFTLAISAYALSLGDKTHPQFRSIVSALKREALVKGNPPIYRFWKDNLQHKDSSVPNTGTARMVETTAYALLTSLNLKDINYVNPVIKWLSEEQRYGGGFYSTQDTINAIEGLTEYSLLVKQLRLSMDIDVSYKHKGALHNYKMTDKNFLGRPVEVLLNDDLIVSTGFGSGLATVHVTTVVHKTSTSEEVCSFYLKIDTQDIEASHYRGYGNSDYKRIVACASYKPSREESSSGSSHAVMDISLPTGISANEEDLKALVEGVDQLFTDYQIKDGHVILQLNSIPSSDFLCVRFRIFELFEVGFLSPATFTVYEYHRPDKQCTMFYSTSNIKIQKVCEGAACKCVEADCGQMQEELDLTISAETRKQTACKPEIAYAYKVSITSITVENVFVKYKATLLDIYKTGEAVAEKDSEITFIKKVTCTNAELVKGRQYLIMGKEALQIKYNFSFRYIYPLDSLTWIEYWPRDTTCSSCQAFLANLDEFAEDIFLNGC
T1 sequence (P01031 19-673 limits assumed): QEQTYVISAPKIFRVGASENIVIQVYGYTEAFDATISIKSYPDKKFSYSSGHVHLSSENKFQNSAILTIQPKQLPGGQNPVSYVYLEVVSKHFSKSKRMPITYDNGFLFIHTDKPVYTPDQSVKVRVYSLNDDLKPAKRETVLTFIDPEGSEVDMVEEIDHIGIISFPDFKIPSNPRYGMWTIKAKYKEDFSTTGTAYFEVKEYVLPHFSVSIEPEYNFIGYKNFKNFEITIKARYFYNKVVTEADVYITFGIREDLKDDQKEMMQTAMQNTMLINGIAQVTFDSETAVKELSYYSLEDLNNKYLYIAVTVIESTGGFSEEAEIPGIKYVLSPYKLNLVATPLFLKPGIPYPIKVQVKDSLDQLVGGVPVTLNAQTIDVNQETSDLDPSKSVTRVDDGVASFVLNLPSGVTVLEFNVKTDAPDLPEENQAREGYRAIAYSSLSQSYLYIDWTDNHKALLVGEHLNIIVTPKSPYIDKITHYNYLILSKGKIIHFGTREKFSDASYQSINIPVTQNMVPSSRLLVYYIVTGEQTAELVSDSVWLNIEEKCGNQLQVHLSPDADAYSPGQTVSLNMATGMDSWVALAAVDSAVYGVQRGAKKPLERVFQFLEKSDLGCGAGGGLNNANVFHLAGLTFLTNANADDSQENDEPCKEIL
Protocol: Polypeptides listed in Table 3, as well as their optimized derivatives (see Table 4) were assessed for inhibitor activity using a red blood cell hemolysis assay. […] Human sera was rapidly thawed at 37° C. and then stored on ice until diluted into GVB++. Ten 6-fold serial dilutions of polypeptides (10 mM stock, DMSO) were performed in DMSO and then added to buffer. 50 μl of each polypeptide dilution was combined with sera and 100 μl of cells in individual wells of a 96-well tissue culture-treated clear microtitre plate (USA Scientific, Ocala, Fla.) and resuspended by pipetting. Samples were incubated at 37° C. for one hour. […] Data was fit with a log-logit formula producing a dose-response curve and IC50. As used herein, the term “IC50” refers to the half maximal inhibitory concentration, a value used to indicate the amount of the inhibitor needed to reduce a given reaction or process by half.
The human constant light chain kappa and IgG2 constant heavy chain sequences were used for the constants regions of the antibody. This antibody was expressed from human embryonic kidney cells (HEK293) and purified by Protein A affinity chromatography. […] Human sera was rapidly thawed at 37° C. and then stored on ice until diluted into GVB++. Ten 6-fold serial dilutions of each compound (10 mM stock, DMSO) were performed in DMSO and then added to buffer. 50 μl of each compound dilution was combined with sera and 100 μl of cells in individual wells of a 96-well tissue culture-treated clear microtitre plate (USA Scientific, Ocala, Fla.) and resuspended by pipetting. Samples were incubated at 37° C. for one hour. […] Data was fit with a log-logit formula producing a dose-response curve and IC50 (see FIG. 11A).

rat C5 [2] = assay: Binding to rat C5 (statement)
rat C5 [3] = assay: Ex vivo hemolysis assays, rat PK study; type: cell-based; conditions: rat plasma after dosing
[4] = 3 mg/kg IV, cynomolgus monkey
primate C5 protein = assay: Ex vivo hemolysis assay with cynomolgus plasma; type: cell-based, cynomolgus monkey
Protocol: At each time-point, the hemolytic activity was determined as an indicator of active serum complement (see FIG. 4).

[5] = Pharmacokinetic studies in rat (IV and SC); conditions: SC 30 mg/kg, combined R3152 and R3201
Excerpt: In the figure, circles represent concentrations obtained after SC dose and squares represent concentrations obtained after IV dose.
Blood samples were collected at indicated time points, processed into plasma, and analyzed for the indicated compound by LC-MS. […] Blood samples were collected at indicated time points, processed into plasma, and analyzed for the indicated compound by LC-MS.

[6] = Compound stability in human plasma; type: in vitro ADME
Protocol: Compounds were assayed for stability in human plasma under the following conditions. Human plasma was obtained from Bioreclamation (Westbury, N.Y.) and collected in sodium heparin. Plasma was adjusted to pH 7.4. DMSO stocks at 10 mM concentration were prepared for the test compounds. Aliquots of the DMSO solutions were dosed into 1 mL of plasma, which had been pre-warmed to 37° C., at a final test compound concentration of 10 μM. The vials were kept in a benchtop THERMOMIXER® (Eppendorf, Hauppauge, N.Y.) for the duration of the experiment. Aliquots (100 μL) were taken at each timepoint and added to a 96-well plate that had been pre-filled with 300 μL of an acetonitrile solution containing mixture of the internal standards (metoprolol, propranolol and warfarin each at 500 ng/mL). […] Aliquots of the supernatant were removed and analyzed by LC-HRAMS.

C5 [7] = biological target: T1, C5; assay: Competitive fluorescence polarization (FP) binding assay with probe R3076; parameters: purchased Complement Technology, Tyler, Tex
Protocol: FP was used for screening competitive polypeptide inhibitors of the C5 protein. […] The BODIPY-TMR dye attached to the C-terminal lysine of the protein and the subsequent labeled probe was purified by HPLC.
Human C5 protein was diluted to 200 nM in assay buffer, composed of TBS (EMD Millipore, Billerica, Mass.)+0.005% Triton-X (Sigma, Saint Louis, Mo.). 10 μl of assay buffer was added to all wells of a black, non-binding, 384-well assay plate (Greiner, Monroe, N.C.) and 10 μl of diluted C5 protein stock was added to experimental and designated control wells.
Probe R3076 (SEQ ID NO: 40) was diluted 1 to 10 in DMSO (Life Technologies, Grand Island, N.Y.) and 30 μl of that stock was diluted in 3 ml of assay buffer to yield a 100 nM stock. 10 μl of this working stock was then added to each well in the assay plate. The assay plate was incubated at room temperature, protected from light, for 20 minutes to allow binding to reach equilibrium.
Test articles listed in Table 7 were subsequently diluted in DMSO then assay buffer, comprising 10 2-fold dilutions and were then added to the assay plate in triplicate, rapidly. The assay plate was then incubated in the Paradigm (Molecular Devices, Sunnyvale, Calif.) plate reader for 60 minutes at 25° C.
After incubation for 60 minutes, the plate was read using the Paradigm FP protocol (Molecular Devices, Sunnyvale, Calif.) and raw polarization values were imported into Graphpad Prism.

binding to rat C5 (rat C5 [2]): do not bind
SMILES: CCC[C@H](NC(=O)[C@@H](NC(=O)[C@@H]1CCCN1C(=O)[C@H](Cc1ccc(O)cc1)NC(=O)[C@H](CCC(=O)O)NC(=O)[C@H](Cc1c[nH]c2ncccc12)NC(=O)[C@H](Cc1ccc(O)cc1)NC(=O)[C@@H](NC(=O)[C@H](CC(=O)O)NC(=O)[C@@H]1CSCc2cccc(c2)CSC[C@H](NC(C)=O)C(=O)N[C@@H](C(C)C)C(=O)N[C@@H](CCC(=O)O)C(=O)N[C@@H](CCCNC(=N)N)C(=O)N[C@@H](Cc2ccccc2)C(=O)N1)C(C)(C)C)C1CCCCC1)C(=O)O [Compound R3201, [mXylyl(1,6)]Ac-C-V-E-R-F-C-D-Tbg-Y-azaTrp-E-Y-P-Chg-Nvl]
IC50 (C5 [1]): 7.7 nM

SMILES: CCC[C@H](NC(=O)[C@@H](NC(=O)[C@@H]1CCCN1C(=O)[C@H](Cc1ccc(O)cc1)NC(=O)[C@H](CCC(=O)O)NC(=O)[C@H](Cc1c[nH]c2ncccc12)NC(=O)[C@H](Cc1ccc(O)cc1)NC(=O)[C@@H](NC(=O)[C@H](CC(=O)O)NC(=O)[C@@H]1CSCc2cccc(c2)CSC[C@H](NC(C)=O)C(=O)N[C@@H](C(C)C)C(=O)N[C@@H](CCC(=O)O)C(=O)N[C@@H](CCCNC(=N)N)C(=O)N[C@@H](Cc2ccccc2)C(=O)N1)C(C)(C)C)C1CCCCC1)C(N)=O [Compound R3152, [mXylyl(1,6)]Ac-C-V-E-R-F-C-D-Tbg-Y-azaTrp-E-Y-P-Chg-Nvl-NH2]
inhibitory activity in ex vivo hemolysis assays (rat C5 [3]): very little inhibitory activity | average AUC∞ [4]: 23319 ± 2120 ng·h/mL | mean clearance rate [4]: 2.15 ± 0.203 mL/min/kg | mean terminal half-life [4]: 10.9 ± 0.8 h | mean volume of distribution [4]: 1.49 ± 0.152 L/kg | time after dosing at which hemolytic activity returned to normal levels (primate C5 protein; 3 mg/kg IV, plasma levels fell below 100 ng/ml): 48 h | plasma concentration with clear inhibition of complement-mediated hemolysis (primate C5 protein; ex vivo, plasma diluted 1:100, after 3 mg/kg IV): > 200 ng/mL | bioavailability of dose, based on AUC [5]: approximately 65% | binding to rat C5 (rat C5 [2]): do not bind

stability in human plasma in words [6]: highly stable | Percent remaining at time 0 hrs ([6]; 37° C., 10 μM, 0 hrs): 100% | competition for / affinity for C5 in words (C5 [7]): relatively strong affinity
SMILES: CCC[C@H](NC(=O)[C@@H]1CSCc2ccc(cc2)CSC[C@H](NC(=O)[C@H](CCC)NC(C)=O)C(=O)N[C@@H](c2ccccc2)C(=O)N[C@@H]([C@@H](C)O)C(=O)N[C@@H](Cc2c[nH]c3ncccc23)C(=O)N[C@@H](CCC(=O)O)C(=O)N[C@@H](Cc2ccc(O)cc2)C(=O)N(C)[C@@H](CO)C(=O)N[C@@H](Cc2c[nH]cn2)C(=O)N1)C(N)=O [Compound R3050, [pXylyl(2,10)]Ac-Nvl-C-Phg-T-azaTrp-E-Y-(N—Me)S-H-C-Nvl-NH2] (Ac-[Nva]C[Phg]T[Trp(7-aza)]EY[NMeS]HC[Nva]-NH2; linker 2-10 via pXylylene)

competition for / affinity for C5 in words (C5 [7]): weak affinity
SMILES: CCC[C@H](NC(=O)[C@@H]1CCCN1C(=O)[C@H](CCC)NC(=O)[C@@H]1CSCc2cccc(c2)CSC[C@H](NC(C)=O)C(=O)N[C@@H](c2ccccc2)C(=O)N[C@@H]([C@@H](C)O)C(=O)N[C@@H](Cc2c[nH]c3ncccc23)C(=O)N[C@@H](CCC(=O)O)C(=O)N[C@@H](Cc2ccc(O)cc2)C(=O)N(C)[C@@H](CO)C(=O)N[C@@H](Cc2c[nH]cn2)C(=O)N1)C(N)=O [Compound R3014, [mXylyl(1,9)]Ac-C-Phg-T-azaTrp-E-Y-(N—Me)S-H-C-Nvl-P-Nvl-NH2] (Ac-C[Phg]T[Trp(7-aza)]EY[NMeS]HC[Nva]P[Nva]-NH2; linker 1-9 via mXylylene)
